Experimental data: EP0280873A1, “Piperidines, medicines containing them and process for their preparation” (Dr. Karl Thomae GmbH, priority 1987, dated 1988)
Counter-ions that a name gives are not always drawn. Like-named read-outs stand apart in the source and are kept apart here.

What was measured:
Dopamin (D₂)-Rezeptor = biological target: T1, Dopamin (D₂)-Rezeptor (Rattus norvegicus, UniProt P61169); assay: Dopamine (D2) receptor binding affinity, 3H-spiroperidol displacement in rat striatal homogenate; set-up: species or system Ratten
T1 construct: Die Striata werden herauspräpariert und in 25 ml eiskaltem Puffer; from tissue; host or cells: rat striatum membrane homogenate
Procedure: 1.) Bestimmung der Dopamin (D₂)-Rezeptorbindungsaffinitäten nach der modifizierten Methode von D.J. de Vries und P.M. Beart (Europ. J. Pharmacology 109, 417-419 (1985)):
Ratten werden durch Schlag betäubt, dekapitiert und das Ge hirn entnommen. Die Striata werden herauspräpariert und in 25 ml eiskaltem Puffer (50 mM TRIS-HCl, 1 mM EDTA, 5 mM MgCl₂, 1mM Ascorbinsäure, pH=7,20) homogenisiert. Das Homogenat wird 15 Minuten bei 0°C und 50000 × g zentrifugiert. Der Überstand wird verworfen. Das Pellet wird durch Resuspension und erneute Zentrifugation zweimal gewaschen und anschließend bei 37°C eine halbe Stunde vorinkubiert. Das Inkubat wird wie zuvor beschrieben zentrifugiert und der Überstand verworfen. Das Pellet wird in 60 ml Puffer resuspen diert, homogenisiert und dann mit Puffer 1:500 bezogen auf das Striatagewicht verdünnt.
Für den Inkubationsansatz werden 10 µl ³H-Spiroperidol-Lö-sung ([…]; Endkonzentration: 2,5 × 10⁻¹⁰ M), 970 µl Puffer sowie 20 µl Testsubstanzlösung (Endkonzentration: 10⁻¹¹-10⁻⁴ M) vorgelegt. Die unspezifische Bindung wird in Gegenwart von 1 µM Haloperidol bestimmt. Durch Zugabe von 1 ml Homogenatlösung zu dieser Vorlage wird der Assay gestartet. Die Inkubationszeit beträgt 60 Minuten bei Raumtemperatur. Nach Ablauf dieser Zeit wird das Inkubat über ein GF/B-Filter abgesaugt und mit 15 ml eiskaltem Puffer gewaschen. Das feuchte Filter wird mit Instagel® versetzt und über Nacht extrahiert. Anschließend wird die verbliebene Radioaktivität in einem Packard CA 2000 Szintillationscounter bei einer Zählausbeute von 50-55 % gezählt.
Mit Hilfe eines 2-Bindungsstellen-Iterationsprogrammes werden die IC₅₀-Werte ermittelt und daraus die Ki-Werte berechnet.

[1] = tested on: mit Reserpin behandelten Maus; assay: Anti-Parkinson effect: induction of motility in mice treated with reserpine 24 h earlier; type: in vivo; conditions: 2 mg/kg s.c., measured 20 min later, group of 6 mice, x ± sx; saline controls ca. 5
Procedure: 3. Bestimmung der Anti-Parkinson-Wirkung nach der Methode von Hinzen D. et al., European Journal of Pharmacology 131, 75-88 (1986):
a) Motilitätsauslösung an der 24 Stunden zuvor mit Reserpin behandelten Maus:
Mäuse werden 24 Stunden vor dem Experiment mit 5 mg/kg Reserpin i.p. behandelt; die Tiere werden bei 25-30°C gehalten und 3 × mit 2 ml einer 5%igen Glucose-lösung in Tyrode s.c. behandelt. Gruppen zu je 6 Tieren erhalten die Testsubstanz mit 2 mg/kg s.c. injiziert. 20 Minuten später werden die Tiere zur Aktivitätsmessung in Beobachtungskäfige gesetzt, die mit einer Infrarotlichtschranke ausgerüstet sind. Meß-wert ist die Häufigkeit des Passierens des Infrarotstrahles durch eine Gruppe von 6 Mäusen in 5 Minuten ("Laufimpulse/5 Minuten").
Pro Substanz werden 6 Gruppen geprüft. Kontrolltiere erhalten isotone Kochsalzlösung s.c..
Als Ergebnis werden die mit der Testsubstanz erzielten Laufimpulse/5 Minuten dargestellt (x ± sx) Kontrolltiere (Kochsalzlösung) zeigen minimale Aktivität (ca. 5 Laufimpulse/5 Minuten).

Dopamin-Autorezeptoren = assay: Inhibition of dopamine turnover (AMPT-induced fall of whole-brain dopamine) in mice; type: in vivo, Mäusen; conditions: 5 mg/kg s.c., AMPT 250 mg/kg i.p. at 15 min, whole brain dopamine at 4 h 15 min
Procedure: 2. Bestimmung der Dopaminturnoverhemmung:
Die Dopaminturnoverhemmung wurde an Mäusen gemessen. Bei Tieren, die mit α-Methyl-p-tyrosin (AMPT) (250 mg/kg i.p.) zum Zeitpunkt 15 Minuten des Experimentes behandelt werden, fällt die Dopaminkonzentration im Gesamthirn mit fortschreitender Versuchsdauer ab. Durch Substanzen, die an Dopamin-Autorezeptoren wirken, kann der Dopaminabfall (im Vergleich zu mit Kochsalzlösung behandelten Kontrolltieren) verhindert werden. Testsubstanzen werden zum Zeitpunkt 0 des Experiments subkutan appliziert (5 mg/kg s.c.). Zum Zeitpunkt 4 Stunden und 15 Minuten des Experiments werden die Tiere getötet und die Gehirne der Dopaminbestimmung mittels Hochdruckflüssigkeitschromatographie mit elektrochemischer Detektion zugeführt. Bestimmt wird die durch die Testsubstanz bewirkte prozentuale Hemmung des durch AMPT induzierten Dopaminabfalls: […]

MPTP-Affen = assay: Anti-Parkinson effect: abolition of Parkinson symptoms in the MPTP monkey; type: in vivo, Rhesusaffen; conditions: for Dauer (Wirkungsdauer): at the minimal dose; for minimal effective dose: Macaca mulatta, im, read-out: Dosis (Mindestdosen, die zur Aufhebung der Parkinsonsymptomatik führen)
Source text: b) Aufhebung der Parkinsonsymptome am MPTP-Affen nach der modifizierten Methode von Burns, R.S. und Chuang, C.: Proc. Natl. Acad. Sci. 80, 4546-4550 (1983):
Das durch das Neurotoxin 1-Methyl-4-phenyl-1,2,3,6-tetrahydro-pyridin (MPTP) beim Menschen und beim Affen ausgelöste, irreversible neurologische Krankheitsbild ähnelt in seiner klinischen, pathologischen, biochemischen und pharmakologischen Ausprägung weitgehend der idiopathischen Parkinson'schen Erkrankung (Markey et al., Nature 311, 464 (1984)). Ursache dieser überzeugenden Übereinstimmung ist die Tatsache, daß MPTP selektiv jene dopaminergen Nervenzellen in der Substantia nigra des Gehirns zerstört, welche auch bei der natürlich auftretenden Parkinson'schen Erkrankung durch degenerative Prozesse zerstört werden. Es wird diskutiert, daß auch die Ursache der idiopathischen Parkinson'schen Erkrankung im Organismus entstehendes MPTP oder eine ähnliche chemische Verbindung ist (Snyder, S.H., Nature 311, 514 (1984)). Möglicherweise bedingt durch den spezifischen Metabolismus des MPTP ist die klinische Ausprägung des MPTP-Parkinson'bildes bisher außer beim Menschen nur beim Affen nachweisbar.
Das an Rhesusaffen verwirklichte MPTP-Modell ist daher in hervorragendem Maße geeignet, die Wirkung von Anti-Parkinson-Medikamenten zu prüfen. Insgesamt 7 Rhesusaffen waren an dem Versuch beteiligt. Sie hatten über mehrere Tage verteilt, kumulative Dosen von 2,4-6,25 mg/kg MPTP erhalten, bis stabile und irreversible Parkinson-Symptome aufgetreten waren. Im Vordergrund der Symptomatik stand die Bradykinesie, die alle Tiere zeigten, teilweise sogar bis hin zur Akinesie. Kein Tier war in der Lage, spontan Wasser oder Futter aufzunehmen. Die Reaktivität war stark vermindert, meist verharrten die Tiere in einer typischen Beugehaltung. Tremor wurde gelegentlich gesehen. Die Extremitäten wiesen einen Rigor auf. Bei dem Versuch einer Willkür-Motorik traten häufig klonische Krämpfe auf.
Die nachfolgenden Verbindungen wurden jeweils an 2-3 der so vorbehandelten Tiere getestet. Bei intramuskulärer Gabe wurden nach etwa 5 bis 10 Minuten erste koordinierte Willkürbewegungen möglich, die in den folgenden 10 bis 30 Minuten von einer allmählichen, weitestgehenden Normalisierung der Motorik gefolgt waren. Die Tiere waren in der Lage, Nahrung aufzunehmen. Sie verhielten sich innerhalb ihrer Käfige regelgerecht, dies galt auch hinsichtlich Vigilanz und artspezifischen Verhaltens. Als Restsymptomatik wurde gelegentlich leichter Ruhetremor registriert.
Sobald die Wirkung der Verbindungen nachließ, verfielen die Tiere wieder in die oben beschriebene Parkinson-Symptomatik; eine erneute Applikation der Verbindungen führte wieder zur Besserung bzw. weitgehenden Aufhebung der klinischen Erscheinungen.
Nebenwirkungen traten in den bisher angewandten Dosierungen nicht in Erscheinung.
In der nachfolgenden Tabelle werden sowohl die Mindestdosen, die zur Aufhebung der Parkinsonsymptomatik führen, angegeben, als auch die Wirkungsdauer.

Mäusen = assay: Toxicity in mice, oral dosing; type: in vivo; conditions: doses up to 500 mg/kg p.o.
Source text: Ferner sind die erfindungsgemäß hergestellten Verbindungen weitgehend untoxisch. So konnten z.

[2] = rat striata, 3H-Spiroperidol 2,5 × 10⁻¹⁰ M, 60 min at room temperature, Ki calculated from IC50, read-out: Ki
[3] = MPTP-treated rhesus monkeys, i.m.

T1 sequence (P61169 whole entry): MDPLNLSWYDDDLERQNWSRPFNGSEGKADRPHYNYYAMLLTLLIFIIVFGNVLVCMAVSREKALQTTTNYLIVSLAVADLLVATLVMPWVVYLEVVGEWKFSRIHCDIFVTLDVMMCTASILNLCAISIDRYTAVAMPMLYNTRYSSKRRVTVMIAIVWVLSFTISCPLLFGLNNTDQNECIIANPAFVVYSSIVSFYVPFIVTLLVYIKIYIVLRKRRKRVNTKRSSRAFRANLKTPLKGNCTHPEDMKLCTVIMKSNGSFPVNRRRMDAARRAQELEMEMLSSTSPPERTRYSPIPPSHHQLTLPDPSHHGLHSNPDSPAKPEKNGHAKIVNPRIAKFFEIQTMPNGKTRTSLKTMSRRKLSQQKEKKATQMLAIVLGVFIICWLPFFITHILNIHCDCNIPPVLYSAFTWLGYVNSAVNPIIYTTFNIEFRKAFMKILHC

Ki (Dopamin (D₂)-Rezeptor; [2]) [nM]	Structure (SMILES)	Zahl der Laufimpulse/5 min [1] [Laufimpulse/5 min]	Hemmung des Dopaminabfalls (Dopamin-Autorezeptoren) [%]	Dauer (Wirkungsdauer) (MPTP-Affen; [3])	minimal effective dose (MPTP-Affen; MPTP-treated rhesus monkeys, 2-3 animals per compound, i.m.) [mg/kg]	Ki (Dopamin (D₂)-Rezeptor) [nM]	minimal effective dose (MPTP-Affen) [mg/kg]	Todesfälle (Mäusen)
36	CCCN1CCC=C(c2csc(N)n2)C1 [Substanz A, 2-Amino-4-(1-propyl-1,2,3,6-tetrahydro-pyridin-5-yl)-thiazol]	44 ± 4	35	–	–	–	–	–
–	C=CCN1CC=C(c2csc(N)n2)CC1 [Substanz C, 2-Amino-4-(1-allyl-1,2,3,6-tetrahydro-pyridin-4-yl)-thiazol]	32 ± 7	47	2-4 Std.	–	22	0.35	keine Todesfälle
–	CCCN1CC=C(c2csc(N)n2)CC1 [Substanz D, 2-Amino-4-(1-propyl-1,2,3,6-tetrahydro-pyridin-4-yl)-thiazol]	80 ± 10	80	2-3 Std.	–	6	0.03	–
3	Nc1nc(C2=CCCNC2)cs1 [Substanz E, 2-Amino-4-(1,2,3,6-tetrahydro-pyridin-5-yl)thiazol-dihydrochlorid]	–	–	–	–	–	–	–
–	CCCN1CCC(c2csc(N)n2)CC1 [Substanz F, 2-Amino-4-(1-propyl-piperidin-4-yl)thiazol]	65 ± 17	59	2-3 Std.	–	38	0.2	–

Structure (SMILES)	Ki (Dopamin (D₂)-Rezeptor; [2]) [nM]	Zahl der Laufimpulse/5 min [1] [Laufimpulse/5 min]	Hemmung des Dopaminabfalls (Dopamin-Autorezeptoren) [%]	Dauer (Wirkungsdauer) (MPTP-Affen; [3])	minimal effective dose (MPTP-Affen; MPTP-treated rhesus monkeys, 2-3 animals per compound, i.m.) [mg/kg]	Ki (Dopamin (D₂)-Rezeptor) [nM]	minimal effective dose (MPTP-Affen) [mg/kg]	Todesfälle (Mäusen)
C=CCN1CCC=C(c2csc(N)n2)C1 [Substanz B, 2-Amino-4-(1-allyl-1,2,3,6-tetrahydro-pyridin-5-yl)-thiazol]	8	52 ± 9	–	2-5 Std.	0.05	–	–	–
